Experimental findings from the NIST ThermoML archive (doi:10.1021/je300902c) are described below.

Numbers after ± are expanded uncertainties.

A short description of data set [1]: Molar enthalpy of transition or fusion. To be noted: DSC.
Data set [2] is described as follows: molar enthalpy of vaporization or sublimation. To be noted: 298 K; Liquid; DSC.

On to `CCCCCCCCCCCCCCCCCCCCCC(=O)O` [docosanoic acid], for which the “Molar enthalpy of transition or fusion” value in data set [1] (Crystal 2) stood at 0.853 ± 0.148 kcal/mol; in data set [1] (Crystal), 15.8 ± 0.335 kcal/mol. In addition, the molar enthalpy in data set [2] was 37 ± 3.59 kcal/mol. Also, where the note is “Crystal 2, DTA”, the Triple point temperature is 340.9 ± 0.5 K. For the same compound, the Normal melting temperature (Crystal, DSC/DTA) came out at 79.2 ± 0.4 °C.
